Reference: patent publication US11844801B2, “Oral compositions of MK2 pathway inhibitor for treatment of immune conditions” (priority 2020, dated 2023)
“And” between values parts separate entries of the source, which are not always exact repeats. Identical values can stand only once. Like-named read-outs stand apart in the source and are kept apart here.

Experiment: Phase 1 SAD/MAD pharmacokinetics of oral ATI-450 in healthy subjects (incl. 80/120 mg BID extension)
Format: in vivo, human
Conditions: for concentration at 7 day / concentration at 2 day / concentration at 3 day / concentration at 4 day / concentration at 5 day / concentration at 6 day: read-out: Ctrough; for Tmax: read-out: Tmax, median (min, max); for concentration at 2 day: day 2; for concentration at 3 day: day 3; for concentration at 4 day: day 4; for concentration at 5 day: day 5; for concentration at 6 day: day 6; for half-life: read-out: t1/2 (converted)
Experimental: Study Design. […] Single ascending dose (SAD) cohorts. […] Multiple ascending dose (MAD) cohorts. […] Blood Sampling and Bioanalysis. Two-milliliter blood samples were collected for PK analysis. […] The lower limit of quantification was 0.500 ng/mL. Pharmacokinetics. […] Bioanalysis Assay of ATI-450. Sample processing was performed by protein precipitation using a 50.0-μL sample volume. […] A triple quadrupole 6500 mass spectrometer equipped with a turbo-ion spray source was used for detection in positive ion mode. […] A linear calibration curve ranging from 0.500 to 500 ng/mL with a 1/x^2 weighting factor was used. The method was minimally required to have intra- and inter-day precision (coefficients of variation) for pooled plasma quality control samples of ≤15% except at the lower limit of quantitation, where ≤20% was acceptable. The calculated concentrations (both inter- and intra-day) were required to be within 15% of nominal at all concentrations except the lower limit of quantitation, where up to 20% deviation from nominal was acceptable. The precision and accuracy of the method exceeded these minimum requirements for assay validation.

[1] = 100 mg single dose, fed vs fasted
[2] = both sexes, human, plasma, oral, 10 mg, 10 mg BID
[3] = both sexes, human, plasma, oral, 10 mg, 10 mg BID, day 7
[4] = both sexes, human, plasma, oral, 30 mg, 30 mg BID
[5] = both sexes, human, plasma, oral, 30 mg, 30 mg BID, day 7
[6] = both sexes, human, plasma, oral, 50 mg, 50 mg BID, day 1
[7] = both sexes, human, plasma, oral, 50 mg, 50 mg BID
[8] = both sexes, human, plasma, oral, 50 mg, 50 mg BID, day 7

Which AUC(0-t) (10 mg BID, day 7) does the source give for `Cc1cnc(-c2ccnc(C(C)(C)O)n2)cc1-n1c(C)cc(OCc2ncc(F)cc2F)c(Cl)c1=O` (single isomer, unassigned) [ATI-450, 3-chloro-4-((3,5-difluoropyridin-2-yl)methoxy)-2′-(2-(2-hydroxypropan-2-yl)pyrimidin-4-yl)-5′,6-dimethyl-2H-[1,4′-bipyridin]-2-one] here?
Its AUC(0-t) is 364.6 ± 110.7 ng·h/mL.

What about the AUCtau (10 mg BID, day 7) of the same molecule?
The AUCtau was 287.8 ± 81.5 ng·h/mL.

And the CLss/F (10 mg BID, day 7)?
The CLss/F was 37.4 ± 10.9 L/h.

What about the Cavg (10 mg BID, day 7) of the same molecule?
Its Cavg is 24.0 ± 6.8 ng/mL.

What about the Cmin (10 mg BID, day 7) of the same molecule?
Its Cmin is 8.1 ± 3.1 ng/mL.

What about the Ctrough (10 mg BID, day 7) of the same molecule?
The Ctrough was 11.8 ± 5.2 ng/mL.

What about the “Tmax, median (min, max)” value (10 mg BID, day 7) of the same molecule?
Its value is 2.0 (2.0-2.0) h.

And the Vss/F (10 mg BID, day 7)?
The Vss/F was 517.4 ± 203.2 L.

What about the AUC(0-t) (30 mg BID, day 7) of the same molecule?
Its AUC(0-t) is 1204.6 ± 309.1 ng·h/mL.

And the AUCtau (30 mg BID, day 7)?
The AUCtau was 908.9 ± 163.1 ng·h/mL.

And the CLss/F (30 mg BID, day 7)?
The CLss/F was 33.9 ± 5.9 L/h.

What about the Cavg (30 mg BID, day 7) of the same molecule?
The Cavg was 75.6 ± 13.4 ng/mL.

And the Cmin (30 mg BID, day 7)?
Its Cmin is 28.8 ± 10.7 ng/mL.

And the Ctrough (30 mg BID, day 7)?
The Ctrough was 41.1 ± 18.3 ng/mL.

What about the “Tmax, median (min, max)” value (30 mg BID, day 7) of the same molecule?
Its value is 2.0 (1.0-4.0) h.

What about the Vss/F (30 mg BID, day 7) of the same molecule?
The Vss/F was 483.1 ± 85.1 L.

What about the t1/2 (30 mg BID, day 7) of the same molecule?
Its t1/2 is 10.3 ± 3.2 h.

And the “Tmax, median (min, max)” value (50 mg BID, day 1)?
The value was 2.0 (2.0-4.0) h.

What about the AUC0-12 (50 mg BID, day 7) of the same molecule?
The AUC0-12 was 1507.8 (659.9) ng · h/mL.

What about the CLss/F (50 mg BID, day 7) of the same molecule?
The CLss/F was 37.3 ± 11.7 L/h.

What about the Cavg (50 mg BID, day 7) of the same molecule?
The Cavg was 125.6 ± 55.0 ng/mL.

And the Cmax (50 mg BID, day 7)?
Its Cmax is 219.0 (77.8) ng/mL.

And the Cmin (50 mg BID, day 7)?
The Cmin was 58.7 ± 32.8 ng/mL.

What about the Ctrough (50 mg BID, day 7) of the same molecule?
Its Ctrough is 87.9 ± 49.4 ng/mL.

What about the “Tmax, median (min, max)” value (50 mg BID, day 7) of the same molecule?
The value was 3.0 (1.0, 4.0) h and 3.0 (1.0-4.0) h.

What about the CLss/F (80 mg BID, day 7) of the same molecule?
Its CLss/F is 33.2 ± 7.6 L/h.

What about the Ctrough (80 mg BID, day 7) of the same molecule?
Its Ctrough is 158.3 ± 60.3 ng/mL.

What about the “AUC0-∞ higher in the fed state” value [1] of the same molecule?
The value was “about 24%”.

And the “Cmax lower in the fed state” value [1]?
The value was “about 9%”.

What about the CLss/F (120 mg BID, day 7) of the same molecule?
Its CLss/F is 52.3 ± 17.4 L/h.

And the Ctrough (120 mg BID, day 7)?
The Ctrough was 155.8 ± 93.1 ng/mL.

And the “accumulation after multiple dosing” value (10-50 mg BID)?
The value was “up to 1.4 fold”.

And the “terminal half-life (mean t1/2), range over cohorts” value (MAD cohorts 10-50 mg BID, day 7)?
Its value is 9 to 12 h.

And the concentration at 7 day (both sexes, human, plasma, oral, 10 mg BID, day 7)?
The concentration at 7 day was 11.8 ng/mL.

And the AUC(0-t) (both sexes, human, plasma, oral, 10 mg, 10 mg BID, day 1, read-out: AUC0-12)?
Its AUC(0-t) is 200 ng·h/mL.

And the Cmax (both sexes, human, plasma, oral, 10 mg, 10 mg BID, day 1, read-out: Cmax)?
Its Cmax is 34.3 ng/mL.

What about the Tmax (both sexes, human, plasma, oral, 10 mg, 10 mg BID, day 1) of the same molecule?
The Tmax was 2 h.

And the concentration at 2 day [2]?
The concentration at 2 day was 10.1 ± 4.7 ng/mL.

What about the concentration at 3 day [2] of the same molecule?
Its concentration at 3 day is 9.8 ± 4.5 ng/mL.

And the concentration at 4 day [2]?
Its concentration at 4 day is 9.2 ± 5 ng/mL.

What about the concentration at 5 day [2] of the same molecule?
The concentration at 5 day was 9.6 ± 4.7 ng/mL.

What about the concentration at 6 day [2] of the same molecule?
The concentration at 6 day was 10.7 ± 4.9 ng/mL.

And the AUC(0-t) (both sexes, human, plasma, oral, 10 mg, 10 mg BID, day 7, read-out: AUC0-12)?
The AUC(0-t) was 288 ng·h/mL.

And the Cmax (both sexes, human, plasma, oral, 10 mg, 10 mg BID, day 7, read-out: Cmax)?
The Cmax was 51.8 ng/mL.

What about the Tmax [3] of the same molecule?
Its Tmax is 2 h.

And the half-life [3]?
The half-life was 9.6 h.

And the concentration at 7 day (both sexes, human, plasma, oral, 30 mg BID, day 7)?
The concentration at 7 day was 41.1 ng/mL.

And the AUC(0-t) (both sexes, human, plasma, oral, 30 mg, 30 mg BID, day 1, read-out: AUC0-12)?
Its AUC(0-t) is 681 ng·h/mL.

And the Cmax (both sexes, human, plasma, oral, 30 mg, 30 mg BID, day 1, read-out: Cmax)?
The Cmax was 126 ng/mL.

And the Tmax (both sexes, human, plasma, oral, 30 mg, 30 mg BID, day 1)?
The Tmax was 2 h.

What about the concentration at 2 day [4] of the same molecule?
Its concentration at 2 day is 37.5 ± 18.8 ng/mL.

And the concentration at 3 day [4]?
The concentration at 3 day was 44.1 ± 29.3 ng/mL.

What about the concentration at 4 day [4] of the same molecule?
The concentration at 4 day was 36.8 ± 14.9 ng/mL.

And the concentration at 5 day [4]?
The concentration at 5 day was 34.9 ± 13.8 ng/mL.

And the concentration at 6 day [4]?
Its concentration at 6 day is 38.9 ± 16.2 ng/mL.

What about the AUC(0-t) (both sexes, human, plasma, oral, 30 mg, 30 mg BID, day 7, read-out: AUC0-12) of the same molecule?
The AUC(0-t) was 909 ng·h/mL.

What about the Cmax (both sexes, human, plasma, oral, 30 mg, 30 mg BID, day 7, read-out: Cmax) of the same molecule?
Its Cmax is 146 ng/mL.

And the Tmax [5]?
The Tmax was 2 h.

And the half-life [5]?
Its half-life is 10.3 h.

What about the concentration at 7 day (both sexes, human, plasma, oral, 50 mg BID, day 7) of the same molecule?
The concentration at 7 day was 87.9 ng/mL.

And the AUC [6]?
Its AUC is 1180 ± 340 ng·h/mL.

And the AUC(0-t) (both sexes, human, plasma, oral, 50 mg, 50 mg BID, day 1, read-out: AUC0-12)?
Its AUC(0-t) is 1180 ng·h/mL.

What about the AUC(0-t) (both sexes, human, plasma, oral, 50 mg, 50 mg BID, day 1, read-out: AUC0-t) of the same molecule?
The AUC(0-t) was 1180 ± 340 ng·h/mL.

And the Cmax (both sexes, human, plasma, oral, 50 mg, 50 mg BID, day 1, read-out: Cmax)?
Its Cmax is 187 ng/mL.

What about the Tmax [6] of the same molecule?
The Tmax was 2 h.

And the concentration at 2 day [7]?
The concentration at 2 day was 84 ± 40.6 ng/mL.

What about the concentration at 3 day [7] of the same molecule?
Its concentration at 3 day is 80.6 ± 44.2 ng/mL.

What about the concentration at 4 day [7] of the same molecule?
The concentration at 4 day was 81.5 ± 49.6 ng/mL.

And the concentration at 5 day [7]?
The concentration at 5 day was 81.5 ± 43.9 ng/mL.

And the concentration at 6 day [7]?
The concentration at 6 day was 76.4 ± 38.6 ng/mL.

What about the AUC [8] of the same molecule?
Its AUC is 1510 ± 660 ng·h/mL.

What about the AUC(0-t) (both sexes, human, plasma, oral, 50 mg, 50 mg BID, day 7, read-out: AUC0-12) of the same molecule?
Its AUC(0-t) is 1510 ng·h/mL.

What about the AUC(0-t) (both sexes, human, plasma, oral, 50 mg, 50 mg BID, day 7, read-out: AUC0-24, total daily exposure calculated as AUC0-12 × 2) of the same molecule?
Its AUC(0-t) is 3040 ng·h/mL.

And the AUC(0-t) (both sexes, human, plasma, oral, 50 mg, 50 mg BID, day 7, read-out: AUC0-t)?
Its AUC(0-t) is 2260 ± 1070 ng·h/mL.

What about the Cmax (both sexes, human, plasma, oral, 50 mg, 50 mg BID, day 7, read-out: Cmax) of the same molecule?
The Cmax was 219 ng/mL.

What about the Tmax [8] of the same molecule?
The Tmax was 3 h.

What about the half-life [8] of the same molecule?
The half-life was 11.6 h.

What about the concentration at 7 day (both sexes, human, plasma, oral, 80 mg BID, day 7) of the same molecule?
Its concentration at 7 day is 158 ng/mL.

What about the AUC (both sexes, human, plasma, oral, 80 mg, 80 mg BID, day 1) of the same molecule?
The AUC was 1690 ± 454 ng·h/mL.

And the AUC(0-t) (both sexes, human, plasma, oral, 80 mg, 80 mg BID, day 1, read-out: AUC0-t)?
Its AUC(0-t) is 1680 ± 451 ng·h/mL.
